In patent US20190298702A1, “COMPOSITIONS AND METHODS FOR TREATING PRURITUS” (priority 2018, published 2019):
Structures can show the parent of a compound that is named as a salt. Where two headings read alike, the source gives them in different places.

Tests used:
[1] = Adverse signs and mortality after SC administration of SDE; format: in vivo, mouse; conditions: SC at 10 mL/kg
Protocol: (§1) Compared to the placebo control group, SDE (administered SC at 10 mL/kg) was associated with significant reduction of substance P-induced scratching behaviors at 4 hours (18.8±11.8 bouts) and 12 hours (24.5±4.1 bouts) post treatment. […] However, SC administration of SDE would cause high concentration of nalbuphine in the circulation and induce serious adverse effects.

[2] = format: physicochemical
Protocol: Individual excipients were investigated to determine their compatibility with SDE (at 50° C. for 2 and 4 weeks) for potential use in a topical formulation.

[3] = tested on: substance P-induced scratching; experiment: Mouse substance P-induced scratching model, subcutaneous SDE; format: in vivo; conditions: for substance P-induced scratching bouts: SC, 75 mg/mL oily formulation at 10 mL/kg, 30-minute observation
Protocol: The time-course and antipruritic effects of SDE via subcutaneous (SC) injection were studied in the mouse substance P-induced scratching model to evaluate the effect of SDE's antipruritic effect. In this study, SDE was dissolved in an oily formulation, with a concentration at 75 mg/mL.
Substance P, the endogenous ligand for the neurokinin-1 (NK-1) receptor, is a significant mediator of pruritus. […] Intradermal injection of substance P elicits an itch sensation in human subjects, and an associated itch response in mice.
as §1

[4] = Ex vivo skin drug permeation and penetration, MedFlux-HT diffusion cell system; format: in vitro ADME, human
Protocol: The ten formulations listed in Table 7 were used to evaluate the penetration of drug into human skin using the MedFlux-HT™ diffusion cell system. In this study, human skins with about 500±50 μm thickness were fixed on the MedFlux-HT diffusion cell system. About 10 mg of test formulation was applied to the epidermal side of the human skin, and a continued flow of receiver fluid was place at the opposite side of the skin. Because SDE is rapidly converted into nalbuphine by the esterases in the biological environment, both nalbuphine and SDE concentration were measured to access the drug permeation status. The concentration of nalbuphine and SDE in receiver fluid indicated the amount of drug that had penetrated through the human skin.
Tissue levels of SDE and nalbuphine in the dermis and epidermis, and the amount of SDE and nalbuphine in the receiver fluids over 24 hours were determined and are shown in FIG. 1A and FIG. 1B. SDE and nalbuphine were both detected in receiver fluid, dermis, and epidermis. The cumulative amounts of SDE and nalbuphine in receiver fluid recovered at 24 hours were 89-1978 ng/cm^2 and 169-978 ng/cm^2, respectively.
These formulations were used to evaluate the penetration of drug into human skin using the MedFlux-HT™ diffusion cell system according to Example 8.

[5] = Whole blood concentration of nalbuphine after the scratching observation; format: in vivo; conditions: ICR, mouse, subcutaneous, 30 mg/kg, SC at 0.5 hour, read-out: effective systemic concentration of nalbuphine (whole blood)
Protocol: Immediately after the scratching observation of Example 11, whole blood was collected from each mouse via the vena cava, and the nalbuphine concentration in each sample was determined.
Immediately after the scratching observation of Example 14, whole blood was collected from each mouse via the vena cava, and the nalbuphine concentration in each sample was determined.

[6] = tested on: substance P-induced scratching; experiment: Mouse substance P-induced scratching model, topical application; format: in vivo; conditions: 30 mg/kg, SC, 0.5 hour post treatment
Protocol: Groups of 10 or 20 male ICR mice weighing 23±3 grams were used. One day before testing, hair was removed at the substance P injection sites. […] Substance P (250 nmol/site) was injected intradermally (ID) in a volume of 50 μL/site into the rostral portion of the back (the same region as test compound application). As reference, nalbuphine HCl was injected subcutaneously on the lower back region (different site as Substance P challenge). The scratching behavior was recorded for 30 minutes by visual observation immediately after substance P injection.
The time-course and antipruritic effects of the Ointment formulations via topical application were investigated in the mouse substance P-induced scratching model according to Example 11. On the testing day, the tested formulations (TA-1, TA-2, TA-3, and TA-4) were applied topically on the rostral portion of the back (2×2 cm region) at 4 hours prior to substance P challenge. 15 male ICR mice were used for each group. As reference, nalbuphine HCl was injected subcutaneously on the lower back region (different site as Substance P challenge). The scratching behavior was recorded for 30 minutes by visual observation immediately after substance P injection.

[7] = four ointment formulations of Table 13

SMILES: O=C(CCCCCCCCC(=O)Oc1ccc2c3c1O[C@H]1[C@@H](O)CC[C@@]4(O)[C@@H](C2)N(CC2CCC2)CC[C@]314)Oc1ccc2c3c1O[C@H]1[C@@H](O)CC[C@@]4(O)[C@@H](C2)N(CC2CCC2)CC[C@]314 [SDE, Sebacoyl Dinalbuphine Ester]
- adverse signs observed [1]: signs of depression, tremor and hypothermia
- mortality rate ([1]; 24 hours): 7.7%
- mortality rate ([1]; 48 hours): 35.7%
- SDE degradation ([2]; combination of BHT with Transcutol P compared to Transcutol P alone, 50° C.): reduce the degree of SDE degradation
- SDE purity (%) ([2]; in Castor oil, 50° C., 2 weeks): 80.20%
- SDE purity (%) ([2]; in Castor oil, 50° C., 4 weeks): 75.71%
- SDE purity (%) ([2]; in Castor oil, T = 0): 100.00%
- SDE purity (%) ([2]; in Diisopropyl adipate, 50° C., 2 weeks): 99.60%
- SDE purity (%) ([2]; in Diisopropyl adipate, 50° C., 4 weeks): 99.49%
- SDE purity (%) ([2]; in Diisopropyl adipate, T = 0): 100.00%
- SDE purity (%) ([2]; in Isopropyl myristate (IPM), 50° C., 2 weeks): 99.51%
- SDE purity (%) ([2]; in Isopropyl myristate (IPM), 50° C., 4 weeks): 85.75%
- SDE purity (%) ([2]; in Isopropyl myristate (IPM), T = 0): 100.00%
- SDE purity (%) ([2]; in Miglyol 810 (Caprylic/Capric triglyceride), 50° C., 2 weeks): 99.66%
- SDE purity (%) ([2]; in Miglyol 810 (Caprylic/Capric triglyceride), 50° C., 4 weeks): 99.69%
- SDE purity (%) ([2]; in Miglyol 810 (Caprylic/Capric triglyceride), T = 0): 100.00%
- SDE purity (%) ([2]; in PEG 400 (pH 4-5) + BHT, 50° C., 2 weeks): 96.38%
- SDE purity (%) ([2]; in PEG 400 (pH 4-5) + BHT, 50° C., 4 weeks): 93.24%
- SDE purity (%) ([2]; in PEG 400 (pH 4-5) + BHT, T = 0): 98.31%
- SDE purity (%) ([2]; in PEG 400 (pH 4-5), 50° C., 2 weeks): 94.01%
- SDE purity (%) ([2]; in PEG 400 (pH 4-5), 50° C., 4 weeks): 96.97%
- SDE purity (%) ([2]; in PEG 400 (pH 4-5), T = 0): 100.00%
- SDE purity (%) ([2]; in Super refined PEG 400 (pH 4-5), 50° C., 2 weeks): 93.17%
- SDE purity (%) ([2]; in Super refined PEG 400 (pH 4-5), 50° C., 4 weeks): 92.23%
- SDE purity (%) ([2]; in Super refined PEG 400 (pH 4-5), T = 0): 100.00%
- SDE purity (%) ([2]; in Transcutol P + BHT, 50° C., 2 weeks): 14.65%
- SDE purity (%) ([2]; in Transcutol P + BHT, 50° C., 4 weeks): 4.21%
- SDE purity (%) ([2]; in Transcutol P + BHT, T = 0): 96.90%
- SDE purity (%) ([2]; in Transcutol P, 50° C., 2 weeks): 5.69%
- SDE purity (%) ([2]; in Transcutol P, 50° C., 4 weeks): 1.50%
- SDE purity (%) ([2]; in Transcutol P, T = 0): 94.31%
- change of SDE purity ([2]; in deionized water (at both pH 4 and 5) and Transcutol P, 50° C. for 2 and 4 weeks): Significant reductions
- SDE purity (%) ([2]; in water (pH 4), 50° C., 2 weeks): 28.91%
- SDE purity (%) ([2]; in water (pH 4), 50° C., 4 weeks): 14.47%
- SDE purity (%) ([2]; in water (pH 4), T = 0): 96.61%
- SDE purity (%) ([2]; in water (pH 5), 50° C., 2 weeks): 28.74%
- SDE purity (%) ([2]; in water (pH 5), 50° C., 4 weeks): 5.43%
- SDE purity (%) ([2]; in water (pH 5), T = 0): 96.83%
- suppressive effect on scratching responses ([3]; SC at 10 mL/kg, 24 hours): 45%
- attenuation of scratching responses ([3]; SC at 10 mL/kg, 48 hours): loss of activity
- substance P-induced scratching bouts ([3]; 4 hours post treatment): 18.8±11.8 bouts
- substance P-induced scratching bouts ([3]; 12 hours post treatment): 24.5±4.1 bouts
- concentration of SDE in receiver fluid versus concentration of nalbuphine [4, 7]: comparable
- concentrations of SDE in dermis and epidermis versus concentrations of nalbuphine [4, 7]: much greater
- concentration of SDE in receiver fluid versus concentration of nalbuphine ([4]; ten formulations of Table 7): comparable
- concentrations of SDE in dermis and epidermis versus concentrations of nalbuphine ([4]; ten formulations of Table 7): 10 fold

SMILES: Oc1ccc2c3c1O[C@H]1[C@@H](O)CC[C@@]4(O)[C@@H](C2)N(CC2CCC2)CC[C@]314 [nalbuphine HCl]
- concentration at 0.5 h [5]: ~207 ng/mL
- substance P-evoked scratching behaviors ([6]; versus respective control (Example 11)): significantly reduced
- substance P-evoked scratching behaviors ([6]; versus respective control (Example 14)): significantly reduced
